Reference: patent US9005580B2, “Treatment of renal cell carcinoma” (priority 2010, dated 2015)

Tests used:
[1] = compared to BCNU; cited from earlier work
[2] = test system: xenografts in nude mice; conditions: in some cases; cited from earlier work
[3] = test system: human renal cell carcinomas (SKRC-7, 786-0); assay type: cell-based
[4] = test system: Sprague-Dawley rats; conditions: corresponding amounts of unconjugated Orellanine, within four days; cited from earlier work
[5] = test system: human renal cancer cells; conditions: cells derived from a primary tumor or from metastatic tumor tissue; cited from earlier work

Structure (SMILES): O=NN(CCCl)C(=O)NCCO [HECNU, 1-(2-chloroethyl)-1-nitroso-3-(2-hydroxyethyl)urea]
- water solubility [1]: improved water solubility

Structure (SMILES): Cc1cc(N(CCOS(C)(=O)=O)CCOS(C)(=O)=O)ccc1C=O [NSC-281612]
- effect on tumor mass [2]: apparently complete eradication of the tumor mass

Structure (SMILES): [O-][n+]1ccc(O)c(O)c1-c1c(O)c(O)cc[n+]1[O-] [Orellanine, 3,3′,4,4′-tetrahydroxy-2,2′-bipyridine-N,N′-dioxide]
- correlation between exposure concentration and fraction of cells that die [3]: clear correlation
- delay between administration and onset of cell death [3]: 48 h
- loss of GFR [4]: almost total loss of GFR
- killing of renal cancer cells [5]: kills them with great efficiency
